This passage reports IC50, IC10 and IC90 results from ChEMBL document CHEMBL1126536, “Synthesis and antimalarial evaluation of 2,3,5-trioxabicyclo[2.2.3]nonane, a model for the putative pharmacophore of artemisinin” (Bioorg Med Chem Lett, 1993).

Values after ≈ are worked out from the molar mass of the structure shown.

The subject of experiment [1] is Plasmodium falciparum. Put plainly: (§1) Inhibitory concentration against chloroquine-sensitive Plasmodium falciparum D-8. It counts as functional, organism-based.
Experiment [2] deals with Plasmodium falciparum. Described as §1. The format is functional.
Experiment [3] has as its system Plasmodium falciparum. Briefly: (§2) Inhibitory concentration against […] Plasmodium falciparum W-2. It counts as functional.
Experiment [4] concerns Plasmodium falciparum. Briefly: Inhibitory concentration against […] Plasmodium falciparum W2. The format is functional.
Experiment [5] relates to Plasmodium falciparum. Described as §2. It counts as functional, organism-based.
Setting [6] is: Plasmodium falciparum, read-out: IC50.
[7] abbreviates: Plasmodium falciparum, read-out: IC10.
Setting [8] is: Plasmodium falciparum, read-out: IC90.

Usually IC50 stands for the concentration needed to halve the response being measured. What is called IC10 is the concentration at which the effect reaches the 10% level. The IC90 is the point of the concentration-response curve where the effect stands at 90%. In the case of `C1CC2COC(C1)OO2` (stereo unspecified), the IC50 in experiment [1] (setting [6]) came out at 2.45 µg/mL (≈ 18.8 µM). In addition, in experiment [2] (setting [7]), the IC10 was 1.34 µg/mL (≈ 10.3 µM). Moreover, the IC90 in experiment [2] (setting [8]) is 4.47 µg/mL (≈ 34.3 µM).
For the molecule `COC1CCCC(OO)CO1` (single isomer, unassigned; isomer A), the IC10 in experiment [3] turned out to be 3.33249 µg/mL (≈ 20.5 µM); in experiment [2] (setting [7]) it was 2.46 µg/mL (≈ 15.2 µM). Further, the results for the IC50 in experiment [1] (setting [6]) and in experiment [5] were 7.49 µg/mL (≈ 46.2 µM) and 6.52488 µg/mL (≈ 40.2 µM), respectively. The results for the IC90 in experiment [2] (setting [8]) and in experiment [4] (setting [8]) were 22.8 µg/mL (≈ 141 µM) and 12.8 µg/mL (≈ 78.8 µM), respectively.
For the molecule `COC1CCCC(OO)CO1` (stereo in doubt), the values for the IC10 in experiment [3] and in experiment [2] were 11.4131 µg/mL (≈ 70.4 µM) and 2.65375 µg/mL (≈ 16.4 µM), respectively. Further, the results for the 50% inhibitory concentration (IC50) in experiment [1] and in experiment [5] were 10.0532 µg/mL (≈ 62 µM) and 15.45681 µg/mL (≈ 95.3 µM), respectively. Further, the concentration for an effect of 90% (IC90) in experiment [2] was 38.08448 µg/mL (≈ 235 µM); in experiment [4], 20.93322 µg/mL (≈ 129 µM).
Turning to `C[C@@H]1CC[C@H]2[C@@H](C)C(=O)O[C@@H]3O[C@@]4(C)CC[C@@H]1[C@]32OO4` [ARTEMISININ], the concentration for an effect of 10% (IC10) in experiment [3] (setting [7]) is 0.00049 µg/mL (≈ 0.00174 µM); in experiment [2] (setting [7]) it was 0.00032 µg/mL (≈ 0.00113 µM). For the same molecule, the 50% inhibitory concentration (IC50) in experiment [1] (setting [6]) came to 0.00083 µg/mL (≈ 0.00294 µM); in experiment [5] (setting [6]), 0.00072 µg/mL (≈ 0.00255 µM). The IC90 in experiment [2] (setting [8]) is 0.00213 µg/mL (≈ 0.00754 µM); in experiment [4] (setting [8]), 0.00105 µg/mL (≈ 0.00372 µM).
For the molecule `CCN(CC)CCCC(C)Nc1ccnc2cc(Cl)ccc12` (stereo unspecified) [CHLOROQUINE], the results for the concentration for an effect of 10% (IC10) in experiment [3] (setting [7]) and in experiment [2] (setting [7]) were 0.0527 µg/mL (≈ 0.165 µM) and 0.00201 µg/mL (≈ 0.00628 µM), respectively. The concentration for an effect of 90% (IC90) stood at 0.00361 µg/mL (≈ 0.0113 µM) in experiment [2] (setting [8]) and 0.0931 µg/mL (≈ 0.291 µM) in experiment [4] (setting [8]).
With `OC(c1cc(C(F)(F)F)nc2c(C(F)(F)F)cccc12)C1CCCCN1` (stereo unspecified) [MEFLOQUINE], the values for the 10% effect concentration (IC10) in experiment [3] (setting [7]) and in experiment [2] (setting [7]) were 0.00117 µg/mL (≈ 0.00309 µM) and 0.00122 µg/mL (≈ 0.00322 µM), respectively. Besides, the IC50 amounted to 0.00686 µg/mL (≈ 0.0181 µM) in experiment [1] (setting [6]) and 0.00209 µg/mL (≈ 0.00552 µM) in experiment [5] (setting [6]). Further, the IC90 in experiment [2] (setting [8]) stood at 0.0385 µg/mL (≈ 0.102 µM); in experiment [4] (setting [8]), 0.00373 µg/mL (≈ 0.00986 µM).
